This note sets out measurements from patent US20220249493A1, “PHARMACEUTICAL COMPOSITION COMPRISING UDENAFIL” (COREPHARM BIO CO., LTD., priority 2019, published 2022).

In brackets after ≈: the same amount, converted by molar mass.

This data set in a line: Udenafil solubility test at different pHs. It counts as physicochemical. As to conditions: thermodynamic from solid; in purified water (Comparative Example 1). The method, then:
A pH adjusting agent was added to 5 ml of purified water, and the mixture was stirred for 10 minutes, and then udenafil was added thereto, thus preparing the solutions shown in Table 1 above.
Detector: UV detector (292 nm)
Column temperature: 30° C.
Mobile phase: 2.72 g of KH2PO4 dissolved in 1 L of purified water (A); acetonitrile (B); A:B=700:300

Broadly, the solubility is the dissolved amount per volume that the medium holds. Higher therefore signals much dissolved substance. Turning to `CCCOc1ccc(S(=O)(=O)NCCC2CCCN2C)cc1-c1nc2c(CCC)nn(C)c2c(=O)[nH]1` (stereo not shown) [Udenafil, 5-[2-propyloxy-5-(1-methyl-2-pyrrolidinyleneamidosulfonyl)phenyl]-1-methyl-1-propyl-1,6-dihydro-7H-pyrazolo(4,3-d)pyrimidin-7-one], the solubility at 2 h is ~120 µg/mL (≈ 232 µM).
